Calls of active or inactive are those of the source. No cut-off for these calls is given here.

Data set [1] deals with T1, Muscarinic acetylcholine receptor M1 (Homo sapiens) (UniProt P11229).
T1 sequence (whole entry): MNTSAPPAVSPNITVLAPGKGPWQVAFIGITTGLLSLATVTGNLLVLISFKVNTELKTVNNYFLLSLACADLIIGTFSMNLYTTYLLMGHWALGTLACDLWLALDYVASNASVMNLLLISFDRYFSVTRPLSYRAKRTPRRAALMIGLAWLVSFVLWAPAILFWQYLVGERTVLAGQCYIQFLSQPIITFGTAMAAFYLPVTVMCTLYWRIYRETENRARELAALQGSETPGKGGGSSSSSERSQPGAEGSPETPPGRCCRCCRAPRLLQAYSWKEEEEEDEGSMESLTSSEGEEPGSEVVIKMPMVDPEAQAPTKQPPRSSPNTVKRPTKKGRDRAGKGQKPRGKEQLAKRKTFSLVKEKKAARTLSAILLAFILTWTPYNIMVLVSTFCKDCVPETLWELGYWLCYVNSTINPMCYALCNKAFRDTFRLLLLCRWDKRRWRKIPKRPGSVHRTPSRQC
Put plainly: Displacement of [3H]pirenzepine from human recombinant M1 receptor expressed in CHO cells at 1 uM. Type of data set: cell-based. A general note: Displacement assays read how much labelled ligand stays bound in the presence of the test substance.

The target of data set [2] is T2, 5-hydroxytryptamine receptor 7 (Homo sapiens, UniProt P34969). Put plainly: biochemical. In kind it is cell-based, CHO-K1.
Data set [3] addresses T3, 5-hydroxytryptamine receptor 2A (Homo sapiens, UniProt P28223). Put plainly: Antagonist activity at human recombinant 5-HT2A receptor expressed in CHO-K1 cells assessed as inhibition of alpha-methyl serotonin-induced response treated 15 to 30 mins before agonist challenge by luminescence analysis. In kind it is cell-based.
Data set [4] addresses T2, 5-hydroxytryptamine receptor 7. As to the kind of experiment: Agonist activity at human 5-HT7 receptor expressed in CHO-K1 cells assessed as cAMP accumulation after 60 mins by TR-FRET immunoassay. Type of data set: functional, cell-based. Background: cAMP levels reflect the balance of adenylyl cyclase and phosphodiesterase activity.
Data set [5] addresses T4, D(2) dopamine receptor (Homo sapiens, UniProt P14416). Put plainly: biochemical.
In data set [6] the target is T2, 5-hydroxytryptamine receptor 7. As to the kind of experiment: Antagonist activity at human 5-HT7 receptor expressed in CHO-K1 cells assessed as inhibition of serotonin-induced cAMP accumulation after 60 mins by TR-FRET immunoassay. In kind it is functional, cell-based.
Data set [7] concerns the target T5, 5-hydroxytryptamine receptor 6 (Homo sapiens, UniProt P50406). As to the kind of experiment: Antagonist activity at human recombinant 5-HT6 receptor expressed in CHO-K1 cells assessed as inhibition of serotonin-induced response treated 15 to 30 mins before agonist challenge by luminescence analysis. Type of data set: cell-based.
For data set [8], the target named is T3, 5-hydroxytryptamine receptor 2A. As to the kind of experiment: biochemical. In kind it is cell-based, CHO-K1.
Data set [9] deals with T5, 5-hydroxytryptamine receptor 6. As to the kind of experiment: biochemical.
Data set [10] deals with hERG (KCNH2) potassium channel (Homo sapiens, UniProt Q12809). Put plainly: in vitro. Conditions: CHO cells expressing human cloned ERG.
Data set [11] deals with T4, D(2) dopamine receptor. As to the kind of experiment: Agonist activity at human recombinant D2 receptor expressed in CHO-K1 cells by luminescence analysis. Type of data set: cell-based.
Data set [12] concerns the target T3, 5-hydroxytryptamine receptor 2A. As to the kind of experiment: Agonist activity at human recombinant 5-HT2A receptor expressed in CHO-K1 cells by luminescence analysis. Type of data set: cell-based.
Data set [13] concerns the target T5, 5-hydroxytryptamine receptor 6. As to the kind of experiment: Agonist activity at human recombinant 5-HT6 receptor expressed in CHO-K1 cells by luminescence analysis. In kind it is cell-based.
The target in data set [14] is 5-hydroxytryptamine receptor 2C (Homo sapiens, UniProt P28335). Put plainly: biochemical.
Data set [15] deals with Muscarinic acetylcholine receptor M5 (Homo sapiens, UniProt P08912). Put plainly: Displacement of [3H]4-DAMP from human recombinant M5 receptor expressed in CHO cells. Type of data set: cell-based.
Chain of Muscarinic acetylcholine receptor M5 (P08912 whole entry): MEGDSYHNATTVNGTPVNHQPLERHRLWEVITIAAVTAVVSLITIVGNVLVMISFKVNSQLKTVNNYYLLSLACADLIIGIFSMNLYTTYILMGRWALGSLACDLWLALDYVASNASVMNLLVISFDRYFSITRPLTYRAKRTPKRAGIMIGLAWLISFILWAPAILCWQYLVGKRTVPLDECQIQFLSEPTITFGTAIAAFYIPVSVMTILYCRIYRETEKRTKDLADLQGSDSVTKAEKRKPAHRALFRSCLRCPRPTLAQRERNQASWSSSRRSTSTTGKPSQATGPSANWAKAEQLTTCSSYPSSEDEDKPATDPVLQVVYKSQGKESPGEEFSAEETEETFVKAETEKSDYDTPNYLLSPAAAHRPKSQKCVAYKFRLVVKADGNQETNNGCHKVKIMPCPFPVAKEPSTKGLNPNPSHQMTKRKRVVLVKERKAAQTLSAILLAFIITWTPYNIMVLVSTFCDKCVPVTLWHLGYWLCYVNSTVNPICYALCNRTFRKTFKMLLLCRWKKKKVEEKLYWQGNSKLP

T3 sequence (P28223 whole entry): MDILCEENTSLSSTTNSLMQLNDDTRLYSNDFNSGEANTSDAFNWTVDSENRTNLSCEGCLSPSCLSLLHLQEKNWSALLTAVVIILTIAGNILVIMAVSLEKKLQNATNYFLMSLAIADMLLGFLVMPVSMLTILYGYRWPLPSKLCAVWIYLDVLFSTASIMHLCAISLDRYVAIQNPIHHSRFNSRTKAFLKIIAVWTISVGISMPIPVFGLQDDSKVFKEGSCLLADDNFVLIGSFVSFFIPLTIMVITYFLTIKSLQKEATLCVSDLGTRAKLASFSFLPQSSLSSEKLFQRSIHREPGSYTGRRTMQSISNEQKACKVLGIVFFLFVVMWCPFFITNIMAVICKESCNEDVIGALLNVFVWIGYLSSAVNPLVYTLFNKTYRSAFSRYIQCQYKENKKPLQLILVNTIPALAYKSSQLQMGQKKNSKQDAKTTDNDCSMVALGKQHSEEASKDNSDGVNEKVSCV
Chain of hERG (KCNH2) potassium channel (Q12809 whole entry): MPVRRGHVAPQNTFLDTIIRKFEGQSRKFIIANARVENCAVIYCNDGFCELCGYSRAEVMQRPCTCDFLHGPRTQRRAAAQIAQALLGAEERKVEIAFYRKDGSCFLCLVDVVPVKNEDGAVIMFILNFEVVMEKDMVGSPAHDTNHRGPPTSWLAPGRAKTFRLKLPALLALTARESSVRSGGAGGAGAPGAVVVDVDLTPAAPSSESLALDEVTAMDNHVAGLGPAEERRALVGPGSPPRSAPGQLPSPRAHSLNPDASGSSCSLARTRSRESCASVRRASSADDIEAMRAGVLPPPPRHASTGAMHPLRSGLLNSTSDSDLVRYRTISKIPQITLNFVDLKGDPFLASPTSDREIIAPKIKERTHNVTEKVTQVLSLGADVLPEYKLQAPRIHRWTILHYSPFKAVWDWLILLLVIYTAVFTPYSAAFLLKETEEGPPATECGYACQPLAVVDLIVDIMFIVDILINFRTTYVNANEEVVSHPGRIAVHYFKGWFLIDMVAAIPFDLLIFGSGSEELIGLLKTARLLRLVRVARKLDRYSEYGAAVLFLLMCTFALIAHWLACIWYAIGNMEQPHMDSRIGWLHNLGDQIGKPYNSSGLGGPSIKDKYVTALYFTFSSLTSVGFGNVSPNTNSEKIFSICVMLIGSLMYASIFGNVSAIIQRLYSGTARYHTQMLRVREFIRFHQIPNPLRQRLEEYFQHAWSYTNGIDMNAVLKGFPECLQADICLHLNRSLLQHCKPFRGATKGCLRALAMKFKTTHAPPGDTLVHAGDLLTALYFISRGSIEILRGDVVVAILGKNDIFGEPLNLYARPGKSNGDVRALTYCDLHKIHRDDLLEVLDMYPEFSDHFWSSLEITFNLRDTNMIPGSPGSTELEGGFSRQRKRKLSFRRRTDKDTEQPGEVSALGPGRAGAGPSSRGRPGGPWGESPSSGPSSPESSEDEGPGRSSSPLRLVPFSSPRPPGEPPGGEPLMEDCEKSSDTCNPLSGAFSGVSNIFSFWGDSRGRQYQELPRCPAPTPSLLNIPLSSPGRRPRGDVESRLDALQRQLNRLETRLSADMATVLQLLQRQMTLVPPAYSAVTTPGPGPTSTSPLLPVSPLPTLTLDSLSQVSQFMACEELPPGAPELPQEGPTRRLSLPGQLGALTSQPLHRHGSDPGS
T5 sequence (P50406 whole entry): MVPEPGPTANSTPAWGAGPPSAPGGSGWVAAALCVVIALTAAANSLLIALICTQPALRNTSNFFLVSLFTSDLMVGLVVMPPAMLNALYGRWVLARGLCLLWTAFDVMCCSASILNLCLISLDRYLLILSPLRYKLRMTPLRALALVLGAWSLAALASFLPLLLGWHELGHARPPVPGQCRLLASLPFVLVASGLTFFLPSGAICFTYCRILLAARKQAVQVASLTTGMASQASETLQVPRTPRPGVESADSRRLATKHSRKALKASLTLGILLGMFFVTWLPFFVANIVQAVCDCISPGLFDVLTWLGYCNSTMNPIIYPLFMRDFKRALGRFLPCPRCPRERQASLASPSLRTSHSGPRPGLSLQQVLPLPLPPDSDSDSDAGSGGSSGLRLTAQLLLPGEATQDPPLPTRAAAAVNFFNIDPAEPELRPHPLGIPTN
T4 sequence (P14416 whole entry): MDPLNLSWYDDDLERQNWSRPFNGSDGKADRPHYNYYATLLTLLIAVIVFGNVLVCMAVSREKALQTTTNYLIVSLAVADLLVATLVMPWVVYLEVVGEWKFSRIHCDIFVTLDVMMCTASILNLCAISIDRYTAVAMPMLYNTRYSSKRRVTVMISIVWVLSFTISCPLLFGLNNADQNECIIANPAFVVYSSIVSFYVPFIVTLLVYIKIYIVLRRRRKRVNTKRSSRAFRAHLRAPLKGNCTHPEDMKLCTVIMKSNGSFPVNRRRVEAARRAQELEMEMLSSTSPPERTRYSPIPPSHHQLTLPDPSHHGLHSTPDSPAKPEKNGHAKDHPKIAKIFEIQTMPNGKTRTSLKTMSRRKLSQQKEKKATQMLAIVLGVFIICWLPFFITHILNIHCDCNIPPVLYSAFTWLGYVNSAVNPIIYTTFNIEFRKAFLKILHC
T2 sequence (P34969 whole entry): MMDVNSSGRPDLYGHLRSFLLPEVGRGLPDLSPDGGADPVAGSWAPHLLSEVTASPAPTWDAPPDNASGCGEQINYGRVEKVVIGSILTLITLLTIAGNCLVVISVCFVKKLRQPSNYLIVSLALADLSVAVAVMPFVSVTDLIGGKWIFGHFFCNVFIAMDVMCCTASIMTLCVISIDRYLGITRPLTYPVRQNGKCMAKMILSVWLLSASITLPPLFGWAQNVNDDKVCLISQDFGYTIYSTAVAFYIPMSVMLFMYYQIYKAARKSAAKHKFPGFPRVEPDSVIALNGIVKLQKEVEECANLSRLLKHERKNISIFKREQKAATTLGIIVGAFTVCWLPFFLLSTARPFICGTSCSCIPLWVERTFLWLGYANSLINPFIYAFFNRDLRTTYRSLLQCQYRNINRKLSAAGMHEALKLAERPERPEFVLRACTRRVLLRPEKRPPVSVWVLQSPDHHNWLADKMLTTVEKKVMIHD
Chain of 5-hydroxytryptamine receptor 2C (P28335 whole entry): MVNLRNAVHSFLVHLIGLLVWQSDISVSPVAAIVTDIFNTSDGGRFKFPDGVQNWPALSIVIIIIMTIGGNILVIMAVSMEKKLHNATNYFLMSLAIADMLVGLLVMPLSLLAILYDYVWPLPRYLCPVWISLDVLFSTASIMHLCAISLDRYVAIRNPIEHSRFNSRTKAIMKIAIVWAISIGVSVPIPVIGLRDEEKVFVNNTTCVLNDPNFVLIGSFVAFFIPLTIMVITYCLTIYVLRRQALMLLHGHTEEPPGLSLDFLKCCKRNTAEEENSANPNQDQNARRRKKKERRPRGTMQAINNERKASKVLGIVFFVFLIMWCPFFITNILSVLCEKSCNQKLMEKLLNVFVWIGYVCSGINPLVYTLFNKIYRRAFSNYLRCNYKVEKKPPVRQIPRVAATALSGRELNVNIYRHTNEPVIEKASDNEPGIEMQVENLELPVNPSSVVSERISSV

As a reminder, the inhibition is the change of the read-out against control, counted positive when it falls. By Ki is commonly meant the dissociation constant of the complex between target and ligand, obtained from inhibition or displacement. As usually defined, the Kb is the affinity of an antagonist, worked out from how it opposes an agonist. With `Cc1cccc(S(=O)(=O)NCCCN2CCC(c3noc4cc(F)ccc34)CC2)c1`, the inhibition in [1] was 1%. In addition, the Ki stood at 0.6 nM in [2], 16 nM in data set [5], 3.7 nM in data set [8] and 13 nM in [9]. For the same molecule, the Kb in [3] worked out at 15 nM; in data set [6] it was 0.5 nM; in [7], 2.5 nM. The result in [4], in data set [11], in [12] and in data set [13] was inactive. Moreover, the inhibition at 1 µM in [10] is 52%.
For the molecule `O=S(=O)(NCCCCN1CCC(c2noc3cc(F)ccc23)CC1)c1ccc2ccccc2c1`, the inhibition in data set [1] is 0%. The Ki in [2] stood at 1.4 nM; in [5], 1.1 nM; in data set [8], 1.7 nM; in data set [9] it was 2.4 nM. Also, the values for the Kb in data set [3], in data set [6] and in [7] were 14 nM, 8.8 nM and 3.8 nM, respectively. The outcome in [4], in data set [11], in [12] and in data set [13] was inactive. Moreover, the inhibition at 1 µM in data set [10] came out at 30%.
As for `Cc1c(S(=O)(=O)NCCCCN2CCC(c3noc4cc(F)ccc34)CC2)sc2ccc(Cl)cc12`, in data set [1], the inhibition is 19%. Moreover, the Ki in data set [2] was found to be 0.7 nM; in [5] it was 1.5 nM; in data set [8] it was 1 nM; in data set [9] it was 1.8 nM. Besides, the Kb in data set [3] was 9.5 nM; in data set [6], 5.6 nM; in [7], 22 nM. Also, the result in [4], in data set [11], in data set [12] and in [13] was inactive. The inhibition at 1 µM in data set [10] stood at 0%.
On to `O=S(=O)(NCCCCN1CCC(c2noc3cc(F)ccc23)CC1)c1ccc2cc(Cl)ccc2c1`, for which the Ki amounted to 3.2 nM in data set [2], 1 nM in data set [5], 0.6 nM in [8] and 2.4 nM in data set [9]. The results for the Kb in data set [3], in data set [6] and in data set [7] were 6.5 nM, 1 nM and 8.3 nM, respectively. In addition, the result in data set [4], in data set [11], in data set [12] and in data set [13] was inactive.
On to `O=S(=O)(NCCCN1CCC(c2noc3cc(F)ccc23)CC1)c1ccc(F)c(Cl)c1`, for which, in data set [1], the inhibition was -8%. Besides, the Ki in data set [2] was 0.9 nM; in data set [5], 3.7 nM; in data set [8] it was 1.5 nM; in [9] it was 1.6 nM. The Kb worked out at 7 nM in [3], 0.8 nM in data set [6] and 7.4 nM in data set [7]. Besides, the outcome in data set [4], in data set [11], in [12] and in [13] was inactive. Besides, the inhibition at 1 µM in [10] is 32%.
`COc1cc(OC)c(C(=O)CCCCN2CCC3(CC2)NC(=O)NC3=O)cc1NS(=O)(=O)c1ccc(C(F)(F)F)cc1` [RS-102,221] yielded an inhibition constant (Ki) in data set [14] of 0.6 nM.
In the case of `O=S(=O)(NCCCCN1CCN(c2nsc3ccccc23)CC1)c1ccc2ccccc2c1`, the inhibition in [1] was -5%. In addition, the Ki in [2] was found to be 1.8 nM; in data set [5], 0.9 nM; in data set [8] it was 1.5 nM; in [9], 5 nM. Moreover, the Kb in data set [3] was 110 nM; in data set [6], 44 nM; in [7], 7.6 nM. In addition, the result in data set [4], in data set [11], in [12] and in [13] was inactive. Further, the inhibition at 1 µM in [10] is 14%.
As to `C[N+]1(C)CCC(OC(=O)C(c2ccccc2)c2ccccc2)CC1` [4-DAMP], the Ki in [15] turned out to be 0.48 nM.
Take `O=S(=O)(NCCCN1CCC(c2noc3cc(F)ccc23)CC1)c1ccc(Cl)c(Cl)c1`: the inhibition in [1] is -3%. Moreover, the inhibitory constant (Ki) in data set [2] is 1.2 nM; in data set [5] it was 14 nM; in data set [8], 2.2 nM; in data set [9], 7.1 nM. In addition, the Kb in [3] worked out at 23 nM; in data set [6], 2.1 nM; in data set [7], 12 nM. Besides, the result in data set [4], in data set [11], in data set [12] and in [13] was inactive. The inhibition at 1 µM in data set [10] is 69%.
For `Cc1c(S(=O)(=O)NCCCCN2CCC(c3noc4cc(F)ccc34)CC2)sc2ccc(F)cc12`, the inhibition in [1] worked out at 22%. Besides, the Ki in data set [2] was found to be 0.2 nM; in data set [5] it was 1.9 nM; in data set [8], 0.7 nM; in [9], 3.4 nM. The Kb in [3] came out at 5 nM; in data set [6] it was 2.2 nM; in data set [7] it was 14 nM. Further, the result in [4], in [11], in data set [12] and in [13] was inactive. The inhibition at 1 µM in data set [10] came out at 14%.
Turning to `O=S(=O)(NCCCCN1CCN(c2noc3ccccc23)CC1)c1ccc2ccccc2c1`, the inhibition in data set [1] was -3%. Moreover, the Ki came out at 0.8 nM in [2], 15 nM in data set [5], 0.7 nM in [8] and 6.2 nM in [9]. For the same molecule, the antagonist dissociation constant (Kb) in data set [3] stood at 11 nM; in data set [6], 9.2 nM; in [7], 11 nM. The outcome in data set [4], in data set [11], in [12] and in data set [13] was inactive. Also, the inhibition at 1 µM in [10] stood at 0%.
Regarding `O=S(=O)(NCCCCN1CCC(c2noc3cc(F)ccc23)CC1)c1cc2ccc(Cl)cc2s1`, the inhibition in [1] is 23%. For the same molecule, the Ki in data set [2] was determined as 1.3 nM; in data set [5] it was 1.2 nM; in data set [8], 0.8 nM; in data set [9], 3.3 nM. In addition, the Kb is 55 nM in data set [3], 2.8 nM in data set [6] and 21 nM in data set [7]. The result in data set [4], in data set [11], in data set [12] and in data set [13] was inactive. In addition, the inhibition at 1 µM in data set [10] was 18%.
As for `O=S(=O)(NCCCCN1CCC(c2noc3cc(F)ccc23)CC1)c1cccc2ccccc12`, the inhibition in [1] stood at 0%. Besides, the Ki was 0.8 nM in data set [2], 3 nM in [5], 0.6 nM in data set [8] and 8.8 nM in data set [9]. Moreover, the Kb in data set [3] came to 76 nM; in data set [6], 3 nM; in data set [7], 17 nM. The outcome in data set [4], in data set [11], in data set [12] and in data set [13] was inactive. Further, in [10], the inhibition at 1 µM stood at 24%.
Turning to `O=S(=O)(NCCCN1CCN(c2nsc3ccccc23)CC1)c1ccc2ccccc2c1`, the inhibition in [1] worked out at 0%. The Ki in [2] came out at 1.5 nM; in [5] it was 2.2 nM; in [8] it was 10 nM; in data set [9] it was 40 nM. The inhibition at 1 µM in data set [10] was 13%.

Values taken from ChEMBL document CHEMBL3286108, “Novel arylsulfonamide derivatives with 5-HT₆/5-HT₇ receptor antagonism targeting behavioral and psychological symptoms of dementia” (J Med Chem, 2014).
